Assay results as given in patent publication US10815230B2, “Casein kinase 1 delta inhibitor” (ELECTROPHORETICS LIMITED, priority 2015, dated 2020).

Tests used:
Assay in all cases: KINOMEscan binding assay
Settings in all cases: read-out: % Ctrl @ 10000 nM
[1] = biological target: ABL1 (H396P) non-phosphorylated (Homo sapiens, UniProt P00519, H396P)
[2] = biological target: ABL1 (T315I) non-phosphorylated (Homo sapiens, UniProt P00519, T315I)
BMPR1B = BMPR1B (Homo sapiens, UniProt O00238)
CAMK1G = CAMK1G (Homo sapiens, UniProt Q96NX5)
CAMKK2 = CAMKK2 (Homo sapiens, UniProt Q96RR4)
CDC2L1 = CDC2L1 (Homo sapiens, UniProt P21127)
CDKL1 = CDKL1 (Homo sapiens, UniProt Q00532)
CSNK1G3 = CSNK1G3 (Homo sapiens, UniProt Q9Y6M4)
DYRK1A = DYRK1A (Homo sapiens, UniProt Q13627)
[3] = biological target: EGFR (L747-S752del, P753S) (Homo sapiens, UniProt P00533, DEL747-752/P753S)
EGFR (L747-S752del, P753S), sequence (P00533 with tags, fused parts or gaps DEL747-752/P753S): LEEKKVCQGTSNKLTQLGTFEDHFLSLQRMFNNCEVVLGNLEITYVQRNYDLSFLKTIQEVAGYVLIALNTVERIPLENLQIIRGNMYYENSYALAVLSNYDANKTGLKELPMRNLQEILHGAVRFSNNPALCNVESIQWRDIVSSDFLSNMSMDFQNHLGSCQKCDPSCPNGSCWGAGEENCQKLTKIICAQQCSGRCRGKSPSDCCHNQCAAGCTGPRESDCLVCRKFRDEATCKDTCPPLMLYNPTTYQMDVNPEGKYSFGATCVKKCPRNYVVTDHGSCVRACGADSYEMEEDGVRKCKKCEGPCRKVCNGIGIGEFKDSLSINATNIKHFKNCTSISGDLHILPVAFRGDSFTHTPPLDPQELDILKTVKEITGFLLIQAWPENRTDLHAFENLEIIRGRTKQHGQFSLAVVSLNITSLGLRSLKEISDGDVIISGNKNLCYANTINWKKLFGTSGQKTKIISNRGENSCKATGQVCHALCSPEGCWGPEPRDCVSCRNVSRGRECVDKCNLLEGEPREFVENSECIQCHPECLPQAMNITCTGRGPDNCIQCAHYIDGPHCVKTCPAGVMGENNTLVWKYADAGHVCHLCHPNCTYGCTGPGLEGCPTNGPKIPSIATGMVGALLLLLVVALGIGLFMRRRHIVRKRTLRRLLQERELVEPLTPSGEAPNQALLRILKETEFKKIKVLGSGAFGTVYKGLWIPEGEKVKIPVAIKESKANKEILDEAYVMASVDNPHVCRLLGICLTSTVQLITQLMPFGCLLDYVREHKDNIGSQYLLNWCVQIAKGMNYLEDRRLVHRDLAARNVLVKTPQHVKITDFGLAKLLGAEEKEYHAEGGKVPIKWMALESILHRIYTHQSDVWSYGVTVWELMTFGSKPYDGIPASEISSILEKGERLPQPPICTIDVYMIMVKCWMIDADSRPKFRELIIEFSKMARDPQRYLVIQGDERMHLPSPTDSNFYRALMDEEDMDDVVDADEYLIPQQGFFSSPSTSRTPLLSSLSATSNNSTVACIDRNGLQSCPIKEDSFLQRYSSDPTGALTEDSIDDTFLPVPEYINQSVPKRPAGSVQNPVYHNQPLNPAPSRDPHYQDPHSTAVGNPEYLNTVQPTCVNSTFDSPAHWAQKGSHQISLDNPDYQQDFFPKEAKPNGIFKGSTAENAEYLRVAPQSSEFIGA

EGFR (L858R) = EGFR (L858R) (Homo sapiens, UniProt P00533, L858R)
EGFR (T790M) = EGFR (T790M) (Homo sapiens, UniProt P00533, T790M)
ERBB4 = ERBB4 (Homo sapiens, UniProt Q15303)
FAK = FAK (Homo sapiens, UniProt Q05397)
FGFR1 = FGFR1 (Homo sapiens, UniProt P11362)
ICK = ICK (Homo sapiens, UniProt Q9UPZ9)
JNK2 = JNK2 (Homo sapiens, UniProt P45984)
JNK2, sequence (P45984 whole entry): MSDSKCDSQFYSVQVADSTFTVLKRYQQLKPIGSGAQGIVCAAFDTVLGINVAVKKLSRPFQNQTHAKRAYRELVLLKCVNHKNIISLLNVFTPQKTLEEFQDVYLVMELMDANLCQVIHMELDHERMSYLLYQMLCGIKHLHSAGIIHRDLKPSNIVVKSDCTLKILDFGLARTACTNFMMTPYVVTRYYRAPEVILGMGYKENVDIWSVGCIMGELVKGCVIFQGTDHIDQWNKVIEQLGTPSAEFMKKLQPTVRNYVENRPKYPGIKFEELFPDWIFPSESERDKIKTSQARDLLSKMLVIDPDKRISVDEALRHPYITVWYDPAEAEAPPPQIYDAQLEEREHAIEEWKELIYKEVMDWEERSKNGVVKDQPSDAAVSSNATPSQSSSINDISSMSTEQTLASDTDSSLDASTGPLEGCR

KIT (D816V) = KIT (D816V) (Homo sapiens, UniProt P10721, D816V)
MAP3K2 = MAP3K2 (Homo sapiens, UniProt Q9Y2U5)
MAP3K3 = MAP3K3 (Homo sapiens, UniProt Q99759)
MAPKAPK5 = biological target: T1, MAPKAPK5 (Homo sapiens, UniProt Q8IW41)
T1 construct: T7 phage fusion (most assays) or DNA label after HEK293 expression; purchased DiscoveRx (KINOMEscan, LeadHunter Discovery services); host or cells: T7 phage in E. coli (BL21-derived) or HEK293

MST1 = MST1 (Homo sapiens, UniProt Q13043)
MST1, sequence (Q13043 whole entry): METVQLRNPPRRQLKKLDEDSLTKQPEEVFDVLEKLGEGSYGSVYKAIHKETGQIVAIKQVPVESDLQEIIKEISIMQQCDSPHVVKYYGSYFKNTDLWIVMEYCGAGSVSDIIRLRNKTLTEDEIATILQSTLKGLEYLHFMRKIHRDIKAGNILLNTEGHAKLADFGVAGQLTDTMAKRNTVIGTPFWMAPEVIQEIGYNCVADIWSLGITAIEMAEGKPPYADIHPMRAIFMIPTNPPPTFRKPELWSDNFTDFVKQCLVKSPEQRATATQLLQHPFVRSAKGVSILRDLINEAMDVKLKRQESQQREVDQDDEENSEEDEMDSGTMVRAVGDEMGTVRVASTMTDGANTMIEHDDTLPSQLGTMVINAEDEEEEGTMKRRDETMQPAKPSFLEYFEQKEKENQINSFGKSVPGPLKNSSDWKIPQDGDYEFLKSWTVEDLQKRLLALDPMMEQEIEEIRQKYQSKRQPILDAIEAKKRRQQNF

MYLK = MYLK (Homo sapiens, UniProt Q15746)
MYO3B = MYO3B (Homo sapiens, UniProt Q8WXR4)
MYO3B, sequence (Q8WXR4 whole entry): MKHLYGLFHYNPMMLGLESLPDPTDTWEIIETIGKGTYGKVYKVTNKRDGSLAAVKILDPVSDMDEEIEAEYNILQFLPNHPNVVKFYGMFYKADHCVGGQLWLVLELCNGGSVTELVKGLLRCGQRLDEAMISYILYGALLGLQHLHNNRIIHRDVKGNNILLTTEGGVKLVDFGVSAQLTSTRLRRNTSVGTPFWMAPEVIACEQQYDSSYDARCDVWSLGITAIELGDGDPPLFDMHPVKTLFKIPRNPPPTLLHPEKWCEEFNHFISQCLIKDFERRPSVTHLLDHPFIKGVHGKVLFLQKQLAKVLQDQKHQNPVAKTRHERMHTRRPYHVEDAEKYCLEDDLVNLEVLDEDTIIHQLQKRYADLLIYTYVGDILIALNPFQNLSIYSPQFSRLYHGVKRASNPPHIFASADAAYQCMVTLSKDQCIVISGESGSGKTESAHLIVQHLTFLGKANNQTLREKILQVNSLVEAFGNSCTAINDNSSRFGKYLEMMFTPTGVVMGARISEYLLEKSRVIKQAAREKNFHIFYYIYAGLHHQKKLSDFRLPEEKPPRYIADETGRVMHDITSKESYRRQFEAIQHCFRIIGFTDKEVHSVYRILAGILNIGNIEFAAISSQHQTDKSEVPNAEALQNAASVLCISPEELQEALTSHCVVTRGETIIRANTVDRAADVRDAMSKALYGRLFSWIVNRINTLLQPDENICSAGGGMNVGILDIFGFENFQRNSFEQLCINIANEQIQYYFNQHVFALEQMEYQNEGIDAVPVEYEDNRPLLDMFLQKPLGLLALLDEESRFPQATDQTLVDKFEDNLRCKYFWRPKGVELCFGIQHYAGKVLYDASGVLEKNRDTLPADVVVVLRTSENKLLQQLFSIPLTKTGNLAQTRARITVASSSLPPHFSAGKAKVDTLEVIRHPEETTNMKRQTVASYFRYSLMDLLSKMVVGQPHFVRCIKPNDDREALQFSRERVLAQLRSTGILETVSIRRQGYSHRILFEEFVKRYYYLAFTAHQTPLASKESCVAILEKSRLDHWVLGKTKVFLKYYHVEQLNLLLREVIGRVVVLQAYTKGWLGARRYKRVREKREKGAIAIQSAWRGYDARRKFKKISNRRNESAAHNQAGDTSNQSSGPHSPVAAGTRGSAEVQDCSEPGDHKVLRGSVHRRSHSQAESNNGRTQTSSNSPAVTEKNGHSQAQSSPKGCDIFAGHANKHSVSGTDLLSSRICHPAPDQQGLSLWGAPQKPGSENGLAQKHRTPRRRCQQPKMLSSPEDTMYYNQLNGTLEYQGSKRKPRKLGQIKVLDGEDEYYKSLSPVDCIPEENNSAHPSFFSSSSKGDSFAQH

NEK2 = NEK2 (Homo sapiens, UniProt P51955)
NEK2, sequence (P51955 whole entry): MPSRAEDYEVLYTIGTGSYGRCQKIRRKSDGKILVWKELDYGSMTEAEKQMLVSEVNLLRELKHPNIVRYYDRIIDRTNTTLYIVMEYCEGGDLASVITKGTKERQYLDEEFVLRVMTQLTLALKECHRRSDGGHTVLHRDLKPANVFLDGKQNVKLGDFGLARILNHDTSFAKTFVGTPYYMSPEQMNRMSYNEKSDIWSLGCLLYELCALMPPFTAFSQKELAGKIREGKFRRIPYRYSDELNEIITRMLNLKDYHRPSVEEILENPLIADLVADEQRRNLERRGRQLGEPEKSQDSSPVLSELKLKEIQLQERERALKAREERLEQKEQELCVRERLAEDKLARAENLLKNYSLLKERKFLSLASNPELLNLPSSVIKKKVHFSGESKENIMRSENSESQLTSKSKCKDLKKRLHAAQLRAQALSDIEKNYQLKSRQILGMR

NEK3 = NEK3 (Homo sapiens, UniProt P51956)
NEK4 = NEK4 (Homo sapiens, UniProt P51957)
PIK3CG = PIK3CG (Homo sapiens, UniProt P48736)
PIK4CB = PIK4CB (Homo sapiens, UniProt Q9UBF8)
PRKCD = PRKCD (Homo sapiens, UniProt Q05655)
PRKCI = PRKCI (Homo sapiens, UniProt P41743)
RIPK5 = RIPK5 (Homo sapiens, UniProt Q6XUX3)
SNARK = SNARK (Homo sapiens, UniProt Q9H093)
TBK1 = TBK1 (Homo sapiens, UniProt Q9UHD2)
TBK1, sequence (Q9UHD2 whole entry): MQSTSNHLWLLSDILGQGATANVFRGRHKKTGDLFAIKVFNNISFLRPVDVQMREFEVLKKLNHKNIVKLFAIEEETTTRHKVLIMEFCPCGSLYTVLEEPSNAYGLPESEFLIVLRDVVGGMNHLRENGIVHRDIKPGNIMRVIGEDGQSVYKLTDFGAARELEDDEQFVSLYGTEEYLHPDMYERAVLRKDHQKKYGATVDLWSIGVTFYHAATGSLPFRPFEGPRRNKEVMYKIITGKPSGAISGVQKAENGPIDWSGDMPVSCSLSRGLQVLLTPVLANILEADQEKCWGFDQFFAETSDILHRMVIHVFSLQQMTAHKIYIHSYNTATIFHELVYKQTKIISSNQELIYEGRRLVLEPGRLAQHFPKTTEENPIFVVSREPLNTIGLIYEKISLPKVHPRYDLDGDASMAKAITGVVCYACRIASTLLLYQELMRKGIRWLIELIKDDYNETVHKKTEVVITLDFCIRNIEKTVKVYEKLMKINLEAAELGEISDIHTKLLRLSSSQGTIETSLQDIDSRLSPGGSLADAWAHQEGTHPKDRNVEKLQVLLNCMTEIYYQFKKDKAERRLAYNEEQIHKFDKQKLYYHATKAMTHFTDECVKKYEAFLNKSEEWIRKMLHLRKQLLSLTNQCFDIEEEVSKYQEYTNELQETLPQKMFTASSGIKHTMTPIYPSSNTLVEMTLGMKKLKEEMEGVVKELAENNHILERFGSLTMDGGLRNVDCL

TGFBR1 = TGFBR1 (Homo sapiens, UniProt P36897)
TNNI3K = TNNI3K (Homo sapiens, UniProt Q59H18)
TSSK1B = TSSK1B (Homo sapiens, UniProt Q9BXA7)
WEE1 = WEE1 (Homo sapiens, UniProt P30291)
YANK1 = biological target: T2, YANK1 (Homo sapiens, UniProt Q8WU08)
T2 construct: purchased DiscoveRx (KINOMEscan, LeadHunter Discovery services)

YANK2 = biological target: T3, YANK2 (Homo sapiens, UniProt Q9NY57)
T3 construct: purchased DiscoveRx (KINOMEscan, LeadHunter Discovery services)
T3 sequence (Q9NY57 whole entry): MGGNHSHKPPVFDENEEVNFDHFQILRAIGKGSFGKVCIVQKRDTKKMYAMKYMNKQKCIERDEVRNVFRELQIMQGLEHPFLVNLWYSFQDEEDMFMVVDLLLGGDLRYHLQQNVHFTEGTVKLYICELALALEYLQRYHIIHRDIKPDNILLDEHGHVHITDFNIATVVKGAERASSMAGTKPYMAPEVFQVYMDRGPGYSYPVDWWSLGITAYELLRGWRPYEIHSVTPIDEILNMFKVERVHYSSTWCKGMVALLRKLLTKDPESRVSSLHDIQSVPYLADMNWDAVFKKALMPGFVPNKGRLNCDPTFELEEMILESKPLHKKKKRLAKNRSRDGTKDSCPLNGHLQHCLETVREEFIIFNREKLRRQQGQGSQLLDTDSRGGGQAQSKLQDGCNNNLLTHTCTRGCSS

YES = YES (Homo sapiens, UniProt P07947)

SMILES: Nc1ncc(-c2nc3ccccc3o2)c(-c2ccncc2)n1 [Comparative Compound 324, 5-(1,3-benzoxazol-2-yl)-4-(pyridine-4-yl)pyrimidin-2-amine]
- remaining binding at 10 µM [1]: 66%
- remaining binding at 10 µM [2]: 96%
- remaining binding at 10 µM (BMPR1B): 80%
- remaining binding at 10 µM (CAMK1G): 89%
- remaining binding at 10 µM (CAMKK2): 97%
- remaining binding at 10 µM (CDC2L1): 91%
- remaining binding at 10 µM (CDKL1): 68%
- remaining binding at 10 µM (CSNK1G3): 83%
- remaining binding at 10 µM (DYRK1A): 87%
- remaining binding at 10 µM [3]: 57%
- remaining binding at 10 µM (EGFR (L858R)): 76%
- remaining binding at 10 µM (EGFR (T790M)): 88%
- remaining binding at 10 µM (ERBB4): 100%
- remaining binding at 10 µM (FAK): 99%
- remaining binding at 10 µM (FGFR1): 98%
- remaining binding at 10 µM (ICK): 99%
- remaining binding at 10 µM (JNK2): 18%
- remaining binding at 10 µM (KIT (D816V)): 91%
- remaining binding at 10 µM (MAP3K2): 87%
- remaining binding at 10 µM (MAP3K3): 76%
- remaining binding at 10 µM (MAPKAPK5): 100%
- remaining binding at 10 µM (MST1): 92%
- remaining binding at 10 µM (MYLK): 86%
- remaining binding at 10 µM (MYO3B): 100%
- remaining binding at 10 µM (NEK2): 98%
- remaining binding at 10 µM (NEK3): 69%
- remaining binding at 10 µM (NEK4): 89%
- remaining binding at 10 µM (PIK3CG): 32%
- remaining binding at 10 µM (PIK4CB): 96%
- remaining binding at 10 µM (PRKCD): 86%
- remaining binding at 10 µM (PRKCI): 65%
- remaining binding at 10 µM (RIPK5): 96%
- remaining binding at 10 µM (SNARK): 98%
- remaining binding at 10 µM (TBK1): 85%
- remaining binding at 10 µM (TGFBR1): 94%
- remaining binding at 10 µM (TNNI3K): 100%
- remaining binding at 10 µM (TSSK1B): 100%
- remaining binding at 10 µM (WEE1): 100%
- remaining binding at 10 µM (YANK1): 66%
- remaining binding at 10 µM (YANK2): 70%
- remaining binding at 10 µM (YES): 100%

SMILES: CNc1c(C(N)=O)c2ccccn2c1C(=O)c1ccc(F)cc1 [Compound A, 2-methyl-amino-3-[(4-fluorophenyl)carbonyl]indolizine-1-carboxamide]
- remaining binding at 10 µM [1]: 14%
- remaining binding at 10 µM [2]: 89%
- remaining binding at 10 µM (BMPR1B): 81%
- remaining binding at 10 µM (CAMK1G): 65%
- remaining binding at 10 µM (CAMKK2): 82%
- remaining binding at 10 µM (CDC2L1): 85%
- remaining binding at 10 µM (CDKL1): 61%
- remaining binding at 10 µM (CSNK1G3): 85%
- remaining binding at 10 µM (DYRK1A): 74%
- remaining binding at 10 µM [3]: 11%
- remaining binding at 10 µM (EGFR (L858R)): 25%
- remaining binding at 10 µM (EGFR (T790M)): 65%
- remaining binding at 10 µM (ERBB4): 64%
- remaining binding at 10 µM (FAK): 92%
- remaining binding at 10 µM (FGFR1): 72%
- remaining binding at 10 µM (ICK): 93%
- remaining binding at 10 µM (JNK2): 45%
- remaining binding at 10 µM (KIT (D816V)): 71%
- remaining binding at 10 µM (MAP3K2): 73%
- remaining binding at 10 µM (MAP3K3): 48%
- remaining binding at 10 µM (MAPKAPK5): 100%
- remaining binding at 10 µM (MST1): 84%
- remaining binding at 10 µM (MYLK): 71%
- remaining binding at 10 µM (MYO3B): 100%
- remaining binding at 10 µM (NEK2): 92%
- remaining binding at 10 µM (NEK3): 66%
- remaining binding at 10 µM (NEK4): 96%
- remaining binding at 10 µM (PIK3CG): 79%
- remaining binding at 10 µM (PIK4CB): 90%
- remaining binding at 10 µM (PRKCD): 93%
- remaining binding at 10 µM (PRKCI): 69%
- remaining binding at 10 µM (RIPK5): 79%
- remaining binding at 10 µM (SNARK): 91%
- remaining binding at 10 µM (TBK1): 74%
- remaining binding at 10 µM (TGFBR1): 92%
- remaining binding at 10 µM (TNNI3K): 78%
- remaining binding at 10 µM (TSSK1B): 100%
- remaining binding at 10 µM (WEE1): 94%
- remaining binding at 10 µM (YANK1): 81%
- remaining binding at 10 µM (YANK2): 78%
- remaining binding at 10 µM (YES): 78%
